Data as given in patent EP0652009A1, “Identification and use of protease inhibitors” (ELI LILLY AND COMPANY, priority 1993, dated 1995).
Non-standard residues stand in square brackets, D forms with d. Residues, ends and D or L forms follow the SMILES beside them. 2Nal = N[C@@H](Cc1ccc2ccccc2c1)C(=O)O; Sta = CC(C)C[C@H](N)[C@@H](O)CC(=O)O

Molecular target: Cathepsin D (Homo sapiens, UniProt P07339)
Assay: Assay 3: cathepsin D inhibition activity (non-cellular assay, chromogenic substrate)
Assay type: biochemical
Parameters: Frozen human placental tissue was thawed and homogenized in 10mM Tris-HCl, pH 7.4; from tissue; host or cells: human placenta
Conditions: cathepsin D from human placental tissue, pH 3.7, 37°C
Experimental: A third non-cellular assay for determining in vitro aspartyl protease inhibitory activity is generally described in Jupp, R.A. et al., (1990) Biochem. J., 265:871-878 and Rao et al., J. Med. Chem. (1993), in press. The assay is carried out by incubating a test compound with a suitable aspartyl protease, such as cathepsin D, in the presence of a chromogenic substrate. The inhibition constant, Ki, value may then be determined by quantifying the competitive inhibition of the hydrolysis of the chromogenic substrate. A variety of chromogenic substrates that are useful for assaying aspartyl protease activity are discussed in Dunn, et al., (1986) Biochem. J., 237:899-906. A preferred chromogenic substrate for a cathepsin D assay is disclosed in Scarborough, P.E. et al., Protein Science, (1993), 2:264-276.
Concentrations of substrate solutions and cleavage products may be verified using amino acid analysis. The enzyme preparations may be titrated with a tightly binding inhibitor to quantitate the active concentration of the enzyme. Enzyme concentrations are typically in the range of from 1-6 nM. […]
A decrease in absorbance in the range of 284-324 nm may be monitored using a spectrophotometer. Absorbance readings are typically taken at various timepoints. […] Estimates of Ki may then be determined using the Dixon construction. […]

Chain of Cathepsin D (P07339 65-412): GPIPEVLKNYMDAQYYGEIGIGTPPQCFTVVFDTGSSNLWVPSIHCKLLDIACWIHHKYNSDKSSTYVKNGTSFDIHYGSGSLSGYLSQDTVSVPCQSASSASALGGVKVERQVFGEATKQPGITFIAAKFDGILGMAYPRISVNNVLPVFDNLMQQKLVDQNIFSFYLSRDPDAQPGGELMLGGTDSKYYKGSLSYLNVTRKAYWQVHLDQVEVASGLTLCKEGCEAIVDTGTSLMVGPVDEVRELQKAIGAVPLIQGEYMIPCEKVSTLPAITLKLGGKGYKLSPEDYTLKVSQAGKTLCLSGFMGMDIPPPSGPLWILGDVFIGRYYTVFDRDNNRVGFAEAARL

- Ki: 0.39 ± 0.04 nM
SMILES: CC(=O)N[C@@H](Cc1ccc2ccccc2c1)C(=O)N[C@H](C(=O)N[C@@H](CC(C)C)[C@@H](O)CC(=O)N[C@@H](CC(C)C)C(=O)N[C@@H](Cc1ccc2ccccc2c1)C(N)=O)C(C)C [Example 36, Acetyl-β-naphthylalanine-valine-statine-leucine-β-naphthylalanine-amide] (Ac-[2Nal]V[Sta]L[2Nal]-NH2)
